Converted amounts (≈) assume the structure as drawn.
What was measured:
MV4-11 (FLT3-ITD) cells = assay: In vivo AML model: NSG mice transplanted with MV4-11 cells; settings: BKT300 at 98% purity, 1 mg/Kg intraperitoneally, three consecutive days from day 21; day 25; anti human CD45
Protocol: The effect of BKT300 (at 98% purity) on the proliferation of AML cells in vivo was examined by treatment of NOD Scid gamma (NSG) mice transplanted with MV4-11 (FLT3-ITD) cells.
The mice were subjected to irradiation with 300 rad and on the following day were transplanted by IV injection with MV4-11 (FLT3-ITD) cells, 10×10^6 cells/mouse. 21 days following transplantation, the treated group was injected intraperitoneally with 1 mg/Kg of BKT300 (98% purity) per injection for three consecutive days. On day 25 following transplantation, mice were sacrificed and the survival of the human AML blasts in the blood, spleen and the bone marrow was evaluated using anti human CD45.

[1] = test system: MV4-11 human acute myeloid leukemia cells; assay: Cancer cell viability assay, propidium iodide staining (FACS); assay type: cell-based
Protocol: (§1) The cancer cells were incubated in cell medium with 1% fetal calf serum (FCS) at a concentration of 2×10^5 cells/well at a final volume of 250 μl in 96-well plate. The tested small molecule was added to the cells at the indicated concentrations. The cells were incubated for 24 hours and the number of dead and viable cells was then evaluated by fluorescence-activated cell sorting (FACS), using propidium iodide (PI) staining. The IC50 of the small molecule-induced cell death was determined using GraphPad Prism software.
In order to assess the effect of BKT300 on cancer cells viability, the in vitro effect on MV4-11 human acute myeloid leukemia cells was evaluated. The MV4-11 cancer cells were incubated in RPMI cell medium with 1% fetal calf serum (FCS) at a concentration of 2×10^5 cells/well at a final volume of 250 μl in 96-well plate. BKT300 was added to the cells at the indicated concentrations. The cells were incubated for 24 hours and the number of dead and viable cells was then evaluated by fluorescence-activated cell sorting (FACS), using propidium iodide (PI) staining. The IC50 of […] cell death was determined using GraphPad Prism software.

[2] = test system: Jurkat human acute lymphoblastic leukemia cells; assay: as above; assay type: cell-based; settings: BKT300 at 78% purity, 24 hours
Protocol: as §1
(§2) The in vitro effect of BKT300 (at 78% purity) on cancer cell viability was further evaluated using a variety of additional cancer cell lines, using procedures as described hereinabove with respect to MV4-11 cells.

[3] = test system: Raji human lymphoma cells; assay: as above; assay type: cell-based; settings: BKT300 at 78% purity
Protocol: as §1, §2

[4] = test system: H460 human large cell lung cancer cells; assay: as above; assay type: cell-based; settings: BKT300 at 78% purity, 10 μg/ml
Protocol: as §1, §2

[5] = test system: RPMI human multiple myeloma cells; assay: as above; assay type: cell-based; settings: BKT300 at 78% purity, 24 hours
Protocol: as §1, §2

[6] = test system: H345 human small cell lung cancer cells; assay: as above; assay type: cell-based; settings: BKT300 at 78% purity, 8.5 μg/ml
Protocol: as §1, §2

[7] = test system: Bjab human lymphoma cells; assay: as above; assay type: cell-based; settings: BKT300 at 78% purity, 8.5 μg/ml
Protocol: as §1, §2

EPHA8 = EPHA8 (Homo sapiens, UniProt P29322); assay: LanthaScreen europium kinase binding assay; settings: BKT300 at 78% purity
Protocol: (§3) In order to further characterize the effect of BKT300 on cell signaling, kinase profiling of BKT300 (at 78% purity) was performed (by the Life Technologies SelectScreen® Biochemical Profiling Lab) using a LanthaScreen® europium kinase binding assay to screen 440 kinases.
(§4) The principle of the LanthaScreen® assay is depicted in FIG. 13. Binding of an Alexa Fluor® conjugate or “tracer” to a kinase is detected by addition of a europium (Eu)-labeled anti-tag antibody. Binding of the tracer and antibody to a kinase results in a high degree of FRET, whereas displacement of the tracer with a kinase inhibitor results in a loss of FRET. The kinase tracers are based on ATP-competitive kinase inhibitors, making them suitable for detection of any compounds that bind to the ATP site. Inhibitors that bind the ATP site include both Type I kinase inhibitors, which bind solely to the ATP site, and Type II inhibitors (e.g., imatinib, sorafenib, BIRB-796), which bind to both the ATP site and a second site often referred to as the allosteric site.

MAPK10 (JNK3) = MAPK10 (JNK3) (Homo sapiens, UniProt P53779); assay: LanthaScreen europium kinase binding assay; settings: BKT300 at 78% purity
Protocol: as §3, §4

SGK2 = SGK2 (Homo sapiens, UniProt Q9HBY8); assay: LanthaScreen europium kinase binding assay; settings: BKT300 at 78% purity
Protocol: as §3, §4

DYRK2 = DYRK2 (Homo sapiens, UniProt Q92630); assay: LanthaScreen europium kinase binding assay; settings: BKT300 at 78% purity
Protocol: as §3, §4

CDK11 (Inactive) = CDK11 (Inactive) (Homo sapiens, UniProt Q9BWU1); assay: LanthaScreen europium kinase binding assay; settings: BKT300 at 78% purity
Protocol: as §3, §4

PAK7 (KIAA1264) = PAK7 (KIAA1264) (Homo sapiens, UniProt Q9P286); assay: LanthaScreen europium kinase binding assay; settings: BKT300 at 78% purity
Protocol: as §3, §4

CDK8/cyclin C = CDK8/cyclin C (Homo sapiens, UniProt P49336); assay: LanthaScreen europium kinase binding assay; settings: BKT300 at 78% purity
Protocol: as §3, §4

STK38L (NDR2) = STK38L (NDR2) (Homo sapiens, UniProt Q9Y2H1); assay: LanthaScreen europium kinase binding assay; settings: BKT300 at 78% purity
Protocol: as §3, §4

SRC N1 = SRC N1 (Homo sapiens, UniProt P12931); assay: LanthaScreen europium kinase binding assay; settings: BKT300 at 78% purity
Protocol: as §3, §4

MELK = MELK (Homo sapiens, UniProt Q14680); assay: LanthaScreen europium kinase binding assay
Protocol: as §3, §4

ACVRL1 (ALK1) = ACVRL1 (ALK1) (Homo sapiens, UniProt P37023); assay: LanthaScreen europium kinase binding assay; settings: BKT300 at 78% purity
Protocol: as §3, §4

MELK, sequence (Q14680 whole entry): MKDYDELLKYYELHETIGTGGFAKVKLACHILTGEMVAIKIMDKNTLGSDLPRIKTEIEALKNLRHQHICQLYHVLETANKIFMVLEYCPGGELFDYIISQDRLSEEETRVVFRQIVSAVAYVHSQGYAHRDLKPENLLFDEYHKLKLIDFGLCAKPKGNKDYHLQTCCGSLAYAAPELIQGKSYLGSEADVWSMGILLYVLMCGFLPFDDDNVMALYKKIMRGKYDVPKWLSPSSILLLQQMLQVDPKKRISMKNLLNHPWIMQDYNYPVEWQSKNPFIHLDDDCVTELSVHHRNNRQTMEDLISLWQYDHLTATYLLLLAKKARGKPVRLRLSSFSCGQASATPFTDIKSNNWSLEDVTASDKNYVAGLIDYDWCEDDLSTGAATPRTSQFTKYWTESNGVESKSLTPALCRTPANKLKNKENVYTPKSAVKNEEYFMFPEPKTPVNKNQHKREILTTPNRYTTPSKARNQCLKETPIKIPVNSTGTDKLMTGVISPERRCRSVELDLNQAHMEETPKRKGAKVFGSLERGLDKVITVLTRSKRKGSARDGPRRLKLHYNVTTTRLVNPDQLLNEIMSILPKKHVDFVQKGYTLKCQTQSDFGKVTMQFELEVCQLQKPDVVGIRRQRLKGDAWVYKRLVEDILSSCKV
CDK8/cyclin C, sequence (P49336 whole entry): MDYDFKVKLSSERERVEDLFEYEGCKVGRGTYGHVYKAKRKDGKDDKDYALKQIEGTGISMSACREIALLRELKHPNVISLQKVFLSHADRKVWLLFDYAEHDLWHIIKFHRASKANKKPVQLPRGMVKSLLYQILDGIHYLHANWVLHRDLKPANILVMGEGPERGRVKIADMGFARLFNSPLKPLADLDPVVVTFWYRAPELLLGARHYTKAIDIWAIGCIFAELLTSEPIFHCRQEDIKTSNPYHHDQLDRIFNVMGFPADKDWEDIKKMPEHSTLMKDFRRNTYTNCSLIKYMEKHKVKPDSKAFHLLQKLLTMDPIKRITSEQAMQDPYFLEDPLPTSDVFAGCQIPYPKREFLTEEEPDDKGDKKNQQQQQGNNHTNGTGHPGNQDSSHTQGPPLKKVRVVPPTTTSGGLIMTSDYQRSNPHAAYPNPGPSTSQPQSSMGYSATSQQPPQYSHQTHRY
CDK8/cyclin C, sequence (P24863 whole entry partner): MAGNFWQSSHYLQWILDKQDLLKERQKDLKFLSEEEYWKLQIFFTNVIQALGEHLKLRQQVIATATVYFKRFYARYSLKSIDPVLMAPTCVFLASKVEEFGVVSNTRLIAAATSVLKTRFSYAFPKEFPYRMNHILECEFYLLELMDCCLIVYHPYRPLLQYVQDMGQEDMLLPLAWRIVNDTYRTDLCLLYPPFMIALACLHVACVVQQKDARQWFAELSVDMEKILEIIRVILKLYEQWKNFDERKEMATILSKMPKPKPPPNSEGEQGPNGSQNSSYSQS
CDK11 (Inactive), sequence (Q9BWU1 whole entry): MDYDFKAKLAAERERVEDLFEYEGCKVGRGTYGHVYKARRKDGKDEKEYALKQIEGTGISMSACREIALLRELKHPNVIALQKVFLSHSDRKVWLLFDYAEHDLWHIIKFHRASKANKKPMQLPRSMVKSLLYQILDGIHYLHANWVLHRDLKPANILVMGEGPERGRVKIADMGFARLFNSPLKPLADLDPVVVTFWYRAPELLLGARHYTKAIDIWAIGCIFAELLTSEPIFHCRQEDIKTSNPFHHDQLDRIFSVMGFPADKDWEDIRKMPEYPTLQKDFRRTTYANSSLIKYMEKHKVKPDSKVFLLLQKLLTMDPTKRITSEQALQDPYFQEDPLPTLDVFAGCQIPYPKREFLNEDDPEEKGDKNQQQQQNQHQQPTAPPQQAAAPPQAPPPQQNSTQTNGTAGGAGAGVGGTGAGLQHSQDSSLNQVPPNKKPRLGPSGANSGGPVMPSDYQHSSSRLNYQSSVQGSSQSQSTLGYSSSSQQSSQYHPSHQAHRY
PAK7 (KIAA1264), sequence (Q9P286 whole entry): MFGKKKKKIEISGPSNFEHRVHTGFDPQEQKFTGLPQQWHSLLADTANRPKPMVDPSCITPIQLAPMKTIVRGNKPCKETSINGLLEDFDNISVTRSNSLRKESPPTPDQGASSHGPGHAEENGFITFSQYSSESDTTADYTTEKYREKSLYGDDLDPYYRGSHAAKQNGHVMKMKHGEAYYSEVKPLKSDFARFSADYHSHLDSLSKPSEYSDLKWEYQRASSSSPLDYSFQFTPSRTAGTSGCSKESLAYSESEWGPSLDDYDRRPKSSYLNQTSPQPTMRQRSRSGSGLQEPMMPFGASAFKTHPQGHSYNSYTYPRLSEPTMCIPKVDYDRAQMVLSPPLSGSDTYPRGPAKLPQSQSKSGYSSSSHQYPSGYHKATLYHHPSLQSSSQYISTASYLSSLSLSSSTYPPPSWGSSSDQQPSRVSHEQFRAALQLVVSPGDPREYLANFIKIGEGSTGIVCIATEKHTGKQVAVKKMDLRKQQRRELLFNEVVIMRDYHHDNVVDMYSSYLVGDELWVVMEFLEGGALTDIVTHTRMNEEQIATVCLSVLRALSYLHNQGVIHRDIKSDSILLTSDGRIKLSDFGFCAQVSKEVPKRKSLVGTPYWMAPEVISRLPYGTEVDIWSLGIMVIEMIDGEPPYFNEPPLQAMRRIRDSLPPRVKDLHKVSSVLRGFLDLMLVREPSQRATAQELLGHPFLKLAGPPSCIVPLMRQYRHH
SGK2, sequence (Q9HBY8 whole entry): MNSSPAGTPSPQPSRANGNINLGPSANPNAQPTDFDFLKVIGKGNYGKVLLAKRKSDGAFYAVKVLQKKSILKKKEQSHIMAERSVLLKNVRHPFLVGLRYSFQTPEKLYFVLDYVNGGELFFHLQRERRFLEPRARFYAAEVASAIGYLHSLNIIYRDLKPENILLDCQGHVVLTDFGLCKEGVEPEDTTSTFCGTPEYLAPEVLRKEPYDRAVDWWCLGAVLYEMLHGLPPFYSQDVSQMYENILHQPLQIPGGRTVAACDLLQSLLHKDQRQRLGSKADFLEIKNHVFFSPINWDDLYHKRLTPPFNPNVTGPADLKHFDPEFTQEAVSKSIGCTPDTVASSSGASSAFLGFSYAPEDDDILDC
MAPK10 (JNK3), sequence (P53779 whole entry): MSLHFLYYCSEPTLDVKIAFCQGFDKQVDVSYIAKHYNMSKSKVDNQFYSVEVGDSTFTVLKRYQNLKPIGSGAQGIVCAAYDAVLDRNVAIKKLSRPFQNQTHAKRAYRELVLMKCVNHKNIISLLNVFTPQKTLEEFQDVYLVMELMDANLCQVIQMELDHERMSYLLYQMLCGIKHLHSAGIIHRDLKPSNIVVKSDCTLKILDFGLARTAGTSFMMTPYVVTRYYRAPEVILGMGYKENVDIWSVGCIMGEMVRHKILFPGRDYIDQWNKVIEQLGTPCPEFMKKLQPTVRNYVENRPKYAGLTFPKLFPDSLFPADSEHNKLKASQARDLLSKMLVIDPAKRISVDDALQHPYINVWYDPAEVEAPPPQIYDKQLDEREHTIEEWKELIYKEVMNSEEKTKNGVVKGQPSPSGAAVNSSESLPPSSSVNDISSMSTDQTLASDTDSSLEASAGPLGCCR
DYRK2, sequence (Q92630 whole entry): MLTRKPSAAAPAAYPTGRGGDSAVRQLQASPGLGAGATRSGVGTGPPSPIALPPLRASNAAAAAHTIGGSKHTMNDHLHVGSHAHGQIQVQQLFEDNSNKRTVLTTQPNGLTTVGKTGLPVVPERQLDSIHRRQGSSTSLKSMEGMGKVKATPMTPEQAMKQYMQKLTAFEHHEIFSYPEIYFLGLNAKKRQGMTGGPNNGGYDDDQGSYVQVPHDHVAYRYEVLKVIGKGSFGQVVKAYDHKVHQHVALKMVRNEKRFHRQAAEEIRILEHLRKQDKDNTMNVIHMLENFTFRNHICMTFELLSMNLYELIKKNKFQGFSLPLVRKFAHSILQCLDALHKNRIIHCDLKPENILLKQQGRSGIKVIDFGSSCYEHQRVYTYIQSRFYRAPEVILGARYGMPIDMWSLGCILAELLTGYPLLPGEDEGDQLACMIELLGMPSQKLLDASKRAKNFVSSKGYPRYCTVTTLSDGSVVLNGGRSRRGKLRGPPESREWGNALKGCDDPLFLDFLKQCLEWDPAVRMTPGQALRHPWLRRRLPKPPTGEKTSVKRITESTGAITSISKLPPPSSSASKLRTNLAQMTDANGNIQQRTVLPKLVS
SRC N1, sequence (P12931 1-542 isoform P12931-2): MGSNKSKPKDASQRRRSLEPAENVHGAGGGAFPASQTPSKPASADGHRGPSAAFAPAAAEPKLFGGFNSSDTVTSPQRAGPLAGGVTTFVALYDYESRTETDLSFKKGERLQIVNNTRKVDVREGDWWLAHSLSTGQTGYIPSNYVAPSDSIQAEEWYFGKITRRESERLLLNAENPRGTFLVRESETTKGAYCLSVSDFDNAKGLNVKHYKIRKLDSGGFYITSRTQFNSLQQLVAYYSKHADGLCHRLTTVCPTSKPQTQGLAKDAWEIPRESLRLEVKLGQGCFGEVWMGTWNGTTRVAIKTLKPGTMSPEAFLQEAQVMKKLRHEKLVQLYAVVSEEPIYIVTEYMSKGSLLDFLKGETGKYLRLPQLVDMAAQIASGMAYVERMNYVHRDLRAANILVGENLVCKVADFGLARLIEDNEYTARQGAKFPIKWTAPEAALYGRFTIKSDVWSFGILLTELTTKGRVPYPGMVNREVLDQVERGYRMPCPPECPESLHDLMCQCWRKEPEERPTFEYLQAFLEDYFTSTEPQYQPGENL

`CCCCCc1cc2cc(O)cc(Oc3c(O)cc(O)cc3CCCCC)c2c(=O)o1` [BKT300] was tested, and the “Number and percentage of AML cells in the bone marrow” value (MV4-11 (FLT3-ITD) cells) was “dramatically reduced”, the “Concentration at which cell death of MV4-11 cells is induced (as low as; lowest tested)” value ([1]; BKT300 at 78% purity, 24 hours) was no more than 2 µg/mL and the “Degree of cell death of MV4-11 cells, 98% purity compared with 78% purity” value ([1]; BKT300 at 98% purity, 4.25 μg/ml) was “considerably greater degree of cell death”. For the same molecule, the “Inducing cell death of MV4-11 cells, 98% purity compared with 78% purity” value ([1]; BKT300 at 98% purity, 2.125, 4.25, 8.5 μg/ml) was “significantly more effective”, the “Concentration at which cell death of Jurkat cells is induced (as low as; lowest tested)” value [2] was no more than 2 µg/mL and the IC50 ([2]; Homo sapiens, Jurkat, read-out: IC50 for induced death of Jurkat cells) was 3.5 µg/mL (≈ 8.21 µM). For the same molecule, the “Cell death of Raji cells” value ([3]; 4.25 μg/ml) was “slight cell death”, the “Cell death of Raji cells” value ([3]; 8.5 μg/ml) was “about 30%” and the “Cell death of H460 cells” value [4] was “about 80%”. For the same molecule, the “Concentration at which cell death of RPMI cells is induced (as low as; lowest tested)” value [5] was no more than 2 µg/mL, the “Cell death of H345 cells” value [6] was “over 90%” and the “Cell death of Bjab cells” value [7] was “about 30%”. The “% Inhibition” value (EPHA8) was 50%, the “% Inhibition” value (MAPK10 (JNK3)) was 49% and the “% Inhibition” value (SGK2) was 43%. For the same molecule, the “% Inhibition” value (DYRK2) was 62%, the “% Inhibition” value (CDK11 (Inactive)) was 57% and the “% Inhibition” value (PAK7 (KIAA1264)) was 40%. The “% Inhibition” value (CDK8/cyclin C) was 64%, the “% Inhibition” value (STK38L (NDR2)) was 45% and the “% Inhibition” value (SRC N1) was 41%. The “% Inhibition” value (MELK; BKT300 at 78% purity) was 41%, the “Affinity of BKT300 to the kinase” value (MELK; based on the kinase screening assay summarized in Table 2, relatively low) was “few tens” and the “% Inhibition” value (ACVRL1 (ALK1)) was 47%.

Source: US12233057B2, “Small molecules for inhibiting chemokine activity and/or cancer cells growth” (AlonBio Ltd., priority 2015, dated 2025)
